Several values for one entry are separate records, joined by “and”; a condition that tells them apart may be missing. Identical values can stand only once. One block for each compound: values may come before it.
Experiments:
[1] = Arterial plasma radio-metabolite analysis during PET scans (TM0017); format: in vivo, human
Source text: (§1) Arterial input function data were acquired and processed for all PET scans.

[2] = Safety and tolerability in TM0017 (TEAEs, ECG, vital signs); conditions: TM0017, N = 4, IV radiotracer (≤ 10 µg)
Method: Other safety variables recorded include changes in 12-lead electrocardiogram (ECG) assessment and changes in vital signs (heart rate, systolic blood pressure, diastolic blood pressure, respiratory rate, and body temperature). Vital signs were measured in supine position following 5 min of rest and clinically significant abnormalities (according to the investigator) were recorded as an AE. All ECG recordings were performed following 5 min of rest in the supine position, in triplicate, with ≥ 1 min between each recording. If any clinically significant abnormalities occurred, an ECG data specialist was to review the recordings.

[3] = Phase 1 PET-CT brain biodistribution study TM0017 (VT, K1, k2); format: in vivo, human
Method: A sample size of 2–10 participants was considered sufficient to meet the objectives, whilst limiting radiation exposure.
The preparation of radiopharmaceuticals and execution of PET-CT scans was performed by radiochemists, physicians, and technologists of Invicro (London, UK). Following local anesthesia, a catheter was inserted into the radial artery by an experienced physician; two venous catheters were also inserted. […] Upon administration, dynamic scanning started immediately and continued for 90 min.
as §1
Anatomical regions of interest (ROI) were defined via nonlinear deformation of a template MR image and associated neuroanatomical atlas, to match individual participants’ MR images. These ROI included, but were not limited to: parietal lobe, occipital lobe, frontal lobe, temporal lobe, striatum, cerebellum, thalamus, and the brain stem. Participants’ PET images were registered to their MR images, enabling the individualized ROI to be applied to the dynamic emission data to generate regional time activity curves (TACs). For additional information on the generation of regional TACs, see the electronic supplement.
Phase 1 PET Study in Healthy Male Participants (TM0017)
The TAC and total plasma data were fitted to a single compartment model to determine the influx and efflux constants K1 and k2. Because the plasma free fraction estimate is imprecise, we elected to fit the model using the total (free and bound) arterial concentration input function. The parameters of this model are related to the analogous parameters which would be estimated using an accurate estimate of the free arterial concentration using the equations below. We were able therefore to determine and present the K1 and estimated whole brain total distribution volume (VT), with relatively good repeatability between patients, and the equations below could also be used to relate the overall mean estimates back to the ideal total brain to free plasma minzasolmin (V’T) and unidirectional extraction Eu which can be calculated using the free fraction. The blood volume in the model was fixed at 5%. In this model, radiotracer which is free in tissue, non-specifically bound and specifically bound (i.e. to a target of interest) are lumped together in a single compartment, and so interchange between those states is assumed to be rapid.
The arterial input function used represents the total concentration of parent radiotracer in plasma, with no correction for plasma protein binding and the fitted and observed K1 from this model is lower than the rate of uptake from the free plasma concentration (K’1):
To calculate the Eu from the observed K1 from the model we then need to combine […]
The partition coefficient between total brain and total plasma concentration was determined from the fitted K1 and k2 parameters: […]
and the ratio of total concentration in brain to free concentration in plasma ( V’T) could be […]
Supplemental Fig. 1. Example of HPLC chromatograms (radioactive trace, top; UV trace, bottom) obtained during HPLC analysis of [11C-N-CH3]UCB2713 dose. The time delay

[4] = PET-CT imaging of the mouse brain (time-activity curve, SUV); format: in vivo, male C57 black 6 mice; conditions: at 60 min
Method: Preclinical experiments were conducted on male C57 black 6 mice (N = 10). In vivo experiments were performed on 3 mice and included a PET scan of the brain; ex vivo experiments were performed on all 10 mice and included samples of brain homogenate. […]
(§2) column (5 micron, 250 x 9.4 mm; Method 2); 30 sample fractions (Method 1) and 36 sample fractions (Method 2) were collected over either a 10- or 12-min run.
A radio-chromatogram was reconstructed from the HPLC fractions collected and the percent of unchanged [11C]UCB2713 was calculated:
[11C]UCB2713 parent fraction = i=n i
Where “cCPM fi” is the radioactivity measured for the HPLC fraction, corrected for the background radioactivity. “n” is first and “m” the last HPLC fraction containing the parent compound (1 ≤ n, m ≤ 30 or 36 [where 30 or 36 are the total number of fractions collected]).
PET-Computed Tomography (CT) Scanning and Image Reconstruction
Three mice were euthanized at the 90 min time point following radioligand injection. Prior to euthanization, these mice were scanned by PET-CT. A dynamic PET scan (Siemens Inveon DPET with docked multi-modality CT scanner) was acquired for each anesthetized mouse following IV administration of [11C]UCB2713. PET images were acquired in list mode and reconstructed with increasing time frames over the duration of the scan to characterize radiotracer kinetics. […]

[5] = Radio-HPLC metabolite analysis of mouse brain homogenate and plasma after IV radiotracer; format: in vivo, male C57 black 6 mice; conditions: for % Parent Plasma / % Parent Brain: individual mice; for % Parent Brain: brain homogenate; for share of total brain activity corresponding to the parent / share of total plasma activity corresponding to the parent: approximate
Method: In this preclinical study, two radiolabeling positions were investigated, [^11C-N-CH3]UCB2713 and [^11C]carbonyl UCB2713 ([^11C-CO]UCB2713). The radiolabeling of [^11C-N-CH3]UCB2713 was performed by N-methylation of the corresponding desmethyl precursor with [^11C]methyl iodide and radiolabeling of [^11C-CO]UCB2713 was performed by [^11C]aminocarbonylation of the iodo precursor and the amino precursor with [^11C]carbon monoxide in the presence of Pd(π-cinnamyl) chloride dimer and Xantphos (4,5-bis(diphenylphosphino)-9,9-dimethylxanthene) (Fig. 1b). For additional information on the precursor molecules and radiolabeling methods, see the electronic supplement. A high-performance liquid chromatography (HPLC) metabolite analysis method was developed to quantify the ratio of [^11C-N-CH3]UCB2713 and other unidentified metabolites in plasma and brain homogenate samples. Relative quantification was used to provide the ratio of parent to metabolite in these samples.
Preclinical experiments were conducted on male C57 black 6 mice (N = 10). In vivo experiments were performed on 3 mice and included a PET scan of the brain; ex vivo experiments were performed on all 10 mice and included samples of brain homogenate.
[11C]UCB2713 in vivo/ex vivo Evaluation
Administration of Radioligand and Collecting Samples
Each mouse received an intravenous (IV) bolus injection of [11C]UCB2713 via the jugular vein. The mean (standard deviation [SD]) mass of each radiotracer dose was 1.54 (± 1.03) µg; with a radioactive dose of 17.26 (± 10.88) MBq. At pre-defined time points (40, 60, and 90 min) post-administration of [11C]UCB2713, each mouse was euthanized by exsanguination, followed by cervical dislocation, with blood samples collected in heparin tubes and the brain dissected.
Brain Sample Processing and Preparation of Sample for Analysis
A sample of brain homogenate (1:1, brain:water) was assessed for radioactivity using a γ-counter. Brain homogenate was extracted with a ratio of 1:2 (homogenate:acetonitrile); a ratio of 1:1 was used for the first two animals. The mixture was vortexed for 3 min followed by centrifugation (12000 x g) for 5 min at room temperature. The extraction efficiency was […]
Brain extraction efficiency = counts per minute (CPM) in supernatant (brain extract)/CPM in brain homogenate extracted
To identify the parent-retention time based on the ultraviolet (UV) chromatogram, 20 µL of a solution containing UCB2713 was added to the supernatant (350 µL), followed by 350 µL of 50 mM ammonium formate (adjusted to pH 8), then 0.5 mL of the resulting solution was injected onto the high-performance liquid chromatography (HPLC) column.
Two aliquots of this solution were counted to determine the HPLC recovery as follows:
Recovery efficiency % = = i=1 ∙100 […]
Where “CPM(aliq.)” is the radioactivity measured for the HPLC brain homogenate samples aliquot, “Valiq.” Is the volume of each aliquot , “CPM fi” is the count per minute for fraction “i” and ∑ 30 is the sum of 30 fractions.
Mouse blood samples were centrifuged at 7500 x g for 3 min at 4 °C and plasma was extracted with a ratio of 1:1 (plasma:acetonitrile). The plasma extraction efficiency was […]
Plasma extraction efficiency = CPM in supernatant (plasma extract)/CPM in plasma […]
Samples were prepared as described above for the brain, and two aliquots of solution were counted to determine the HPLC column recovery.
HPLC Procedure and Data Analysis
The HPLC system used a pump, degasser, UV-Vis/Diode Array Detector, and fraction collector. HPLC conditions used were 55% acetonitrile and 45% 100 mM ammonium formate (Method 1), or 48% acetonitrile and 52% 100 mM ammonium formate (adjusted to pH 8; Method 2) as the mobile phase at 5 mL/min and an Agilent XDB-C18 semi-preparative […]
as §2
A radio-chromatogram was reconstructed from the HPLC fractions collected and the […]

[6] = design: method as in PMID 35959805; conditions: UP0030 study participants, 2 h post dose; cited from earlier work
[7] = background statement, no reference given; cited from earlier work
[8] = Cerebellum, Scan 2 (after oral minzasolmin 360 mg)
[9] = Cerebral white matter, Scan 1 (baseline)
[10] = Cerebral white matter, Scan 2 (after oral minzasolmin 360 mg)
[11] = Frontal lobe, Scan 1 (baseline)
[12] = Frontal lobe, Scan 2 (after oral minzasolmin 360 mg)
[13] = Gray matter, Scan 2 (after oral minzasolmin 360 mg)
[14] = Occipital lobe, Scan 1 (baseline)
[15] = Occipital lobe, Scan 2 (after oral minzasolmin 360 mg)
[16] = Parietal lobe, Scan 1 (baseline)
[17] = Parietal lobe, Scan 2 (after oral minzasolmin 360 mg)
[18] = Striatum, Scan 2 (after oral minzasolmin 360 mg)
[19] = Temporal lobe, Scan 1 (baseline)
[20] = Temporal lobe, Scan 2 (after oral minzasolmin 360 mg)
[21] = mixed effects model, after oral minzasolmin 360 mg
[22] = mouse, 40 min post-administration

SMILES: CCCC[C@H](Cc1c[nH]c2ccccc12)NC(=O)c1cnc(N2CCN([11CH3])CC2)s1 [[^11C]minzasolmin]
radioactivity in plasma attributable to intact parent radiotracer ([1]; human arterial plasma, at 90 min): ~ 50%
total parent fraction during the radiotracer brain uptake phase ([1]; human plasma, up to 30 min): > 70%
Any TEAEs [2]: 3 (75) n (%)
Deaths [2]: 0 n (%)
Discontinuations due to TEAEs [2]: 0 n (%)
Drug-related TEAEs [2]: 0 n (%)
Serious TEAEs [2]: 0 n (%)
Severe TEAEs [2]: 0 n (%)
TEAEs of special interest [2]: 0 n (%)
K1 ([3]; Cerebellum, Scan 1 (baseline)): 0.02 mL/cm^3/min
VT ([3]; Cerebellum, Scan 1 (baseline)): 0.522 mL/cm^3
K1 [3, 8]: 0.018 mL/cm^3/min
VT [3, 8]: 0.499 mL/cm^3
K1 [3, 9]: 0.008 mL/cm^3/min
VT [3, 9]: 0.469 mL/cm^3
K1 [3, 10]: 0.007 mL/cm^3/min
VT [3, 10]: 0.523 mL/cm^3
K1 [3, 11]: 0.017 mL/cm^3/min
VT [3, 11]: 0.539 mL/cm^3
K1 [3, 12]: 0.014 mL/cm^3/min
VT [3, 12]: 0.539 mL/cm^3
K1 ([3]; Gray matter, Scan 1 (baseline)): 0.017 mL/cm^3/min
VT ([3]; Gray matter, Scan 1 (baseline)): 0.547 mL/cm^3
K1 [3, 13]: 0.015 mL/cm^3/min
VT [3, 13]: 0.542 mL/cm^3
K1 [3, 14]: 0.019 mL/cm^3/min
VT [3, 14]: 0.548 mL/cm^3
K1 [3, 15]: 0.017 mL/cm^3/min
VT [3, 15]: 0.555 mL/cm^3
K1 [3, 16]: 0.017 mL/cm^3/min
VT [3, 16]: 0.551 mL/cm^3
K1 [3, 17]: 0.015 mL/cm^3/min
VT [3, 17]: 0.574 mL/cm^3
VT before and after dosing with minzasolmin 360 mg ([3]; Scan 1 vs Scan 2): no difference in VT
K1 ([3]; Striatum, Scan 1 (baseline)): 0.015 mL/cm^3/min
VT ([3]; Striatum, Scan 1 (baseline)): 0.545 mL/cm^3
K1 [3, 18]: 0.013 mL/cm^3/min
VT [3, 18]: 0.528 mL/cm^3
K1 [3, 19]: 0.017 mL/cm^3/min
VT [3, 19]: 0.566 mL/cm^3
K1 [3, 20]: 0.015 mL/cm^3/min
VT [3, 20]: 0.557 mL/cm^3
overall mean brain influx rate (K1) ([3]; across each participant and all ROI, from total plasma concentrations): 0.015 mL/cm^3/min
qualitative assessment of the PET images ([3]; following radiotracer injections): distributed throughout the brain
mean difference in VT between Scan 1 and Scan 2 ([3]; least squares mean of mixed model over all regions and participants): -0.008 mL/cm^3
change in K1 after oral dosing [3, 21]: -15.9%
change in k2 after oral dosing [3, 21]: -9.3%

standard uptake volume (SUV), whole brain [4]: ~ 0.2
% Parent Plasma ([5]; 40 min post IV administration): 34.3% and 27.0% and 29.3% and 30.8%
% Parent Plasma ([5]; 60 min post IV administration): 30.6% and 19.5% and 24.6%
% Parent Plasma ([5]; 90 min post IV administration): 9.7% and 26.0% and 17.7%
% Parent Brain ([5]; 40 min post IV administration): 62.0% and 61.1% and 56.0% and 58.2%
% Parent Brain ([5]; 60 min post IV administration): 52.6% and 40.9% and 50.3%
% Parent Brain ([5]; 90 min post IV administration): 34.7% and 29.7% and 22.1%
Kp at 40 min ([5]; male, C57 black 6, mouse, brain/plasma, intravenous, 1.54 µg, mouse, 40 min, read-out: ratio (SD) of parent in the brain versus parent in plasma): 0.77 ± 0.11
Kp at 60 min ([5]; male, C57 black 6, mouse, brain/plasma, intravenous, 1.54 µg, mouse, 60 min, read-out: ratio (SD) of parent in the brain versus parent in plasma): 0.73 ± 0.06
Kp at 90 min ([5]; male, C57 black 6, mouse, brain/plasma, intravenous, 1.54 µg, mouse, 90 min, read-out: ratio (SD) of parent in the brain versus parent in plasma): 0.79 ± 0.69
share of total brain activity corresponding to the parent [5, 22]: approximately 60%
share of total plasma activity corresponding to the parent [5, 22]: approximately 30%
share of total brain activity corresponding to the parent ([5]; mouse, 90 min): approximately 30%
share of total plasma activity corresponding to the parent ([5]; mouse, 90 min): ~20%
SMILES: CCCC[C@@H](Cc1c[nH]c2ccccc12)NC(=O)c1cnc(N2CCN([11CH3])CC2)s1 [[^11C-N-CH3]UCB2713]
polar metabolites in mouse brain ([5]; radio-HPLC column eluent front ~1.5-2 min): significant contribution of brain activity from polar metabolites

SMILES: CCCC[C@H](Cc1c[nH]c2ccccc12)NC(=O)c1cnc(N2CC[N+](C)([O-])CC2)s1 [N-oxide]
concentration in CSF, times lower than the parent minzasolmin concentration [6]: ~ 20 times

SMILES: CCCCC(Cc1c[nH]c2ccccc12)NC(=O)c1cnc(N2CCN(C)CC2)s1 (stereo not shown) [UCB2713]
rate of metabolism compared with the other enantiomer [7]: higher rate of metabolism
